# Publication PMC6909574, “The in vivo impact of MsLAC1, a Miscanthus laccase isoform, on lignification and lignin composition contrasts with its in vitro substrate preference” (BMC Plant Biology, 2019)
# Target: T1, MsLAC1 (Miscanthus sinensis, UniProt A0A5B8YT74)
# T1 construct: recombinant, secreted from Pichia pastoris X33 (pPICZalphaA, alpha-factor, MYC and HIS tags)
# T1 sequence (A0A5B8YT74 32-583): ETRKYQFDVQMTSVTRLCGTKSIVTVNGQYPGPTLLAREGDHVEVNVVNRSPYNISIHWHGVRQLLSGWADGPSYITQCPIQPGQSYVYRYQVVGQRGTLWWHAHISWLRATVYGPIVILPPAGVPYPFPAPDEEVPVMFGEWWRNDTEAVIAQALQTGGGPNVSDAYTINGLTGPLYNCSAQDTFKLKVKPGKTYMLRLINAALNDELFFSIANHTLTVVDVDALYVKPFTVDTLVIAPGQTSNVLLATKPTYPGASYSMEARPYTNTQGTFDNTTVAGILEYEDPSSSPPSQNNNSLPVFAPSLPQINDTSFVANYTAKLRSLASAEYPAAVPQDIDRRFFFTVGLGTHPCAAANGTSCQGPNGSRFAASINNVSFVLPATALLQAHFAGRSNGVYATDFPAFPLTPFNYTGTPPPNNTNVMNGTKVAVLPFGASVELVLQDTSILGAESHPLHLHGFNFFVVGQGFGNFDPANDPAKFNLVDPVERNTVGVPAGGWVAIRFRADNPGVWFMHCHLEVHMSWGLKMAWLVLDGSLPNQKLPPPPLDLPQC
# Experiment: UV-Vis spectra over time ([…]-650 nm)
# Assay type: biochemical
# Conditions: 0.5 mM substrate, 0.02 U enzyme, 50 mM sodium acetate pH 5.0, 30 °C
smiles,measurement,value
COc1cc(/C=C/CO)ccc1O [coniferyl alcohol],UV-Vis spectra over time (250-650 nm),recombinant MsLAC1 enzyme was able to oxidize all supplemented monolignols
